In patent US5385908A, “Hindered esters of rapamycin” (American Home Products Corporation, priority 1993, dated 1995):
Structures can show the parent of a compound that is named as a salt. Where two headings read alike, the source gives them in different places.

Experiments:
[1] = tested on: immune mediated inflammation (uninjected hind paw); experiment: adjuvant arthritis standard pharmacological test procedure; type: in vivo, male inbread Wistar Lewis rats; settings: for Percent change in adjuvant arthritis versus control: 2 mg/kg oral
Procedure: (§1) Immunosuppressive activity for representative compounds of this invention was evaluated in an in vitro standard pharmacological test procedure to measure lymphocyte proliferation (LAF) and in three in vivo standard pharmacological test procedures. The pinch skin graft test procedure measures the immunosuppressive activity of the compound tested as well as the ability of the compound tested to inhibit or treat transplant rejection. The adjuvant arthritis standard pharmacological test procedure, which measures the ability of the compound tested to inhibit immune mediated inflammation. The adjuvant arthritis test procedure is a standard pharmacological test procedure for rheumatoid arthritis. Representative compounds of this invention were also evaluated in a heart allograft standard pharmacological test procedure which measures immunosuppressive activity of the compound tested as well as the ability of the compound tested to inhibit or treat transplant rejection. The procedures for these standard pharmacological test procedures are provided below.
The adjuvant arthritis standard pharmacological test procedure measures the ability of test compounds to prevent immune mediated inflammation and inhibit or treat rheumatoid arthritis. The following briefly describes the test procedure used. A group of rats (male inbread Wistar Lewis rats) are pre-treated with the compound to be tested (1 h prior to antigen) and then injected with Freud's Complete Adjuvant (FCA) in the right hind paw to induce arthritis. The rats are then orally dosed on a Monday, Wednesday, Friday schedule from day 0-14 for a total of 7 doses. Both hind paws are measured on days 16, 23, and 30. The difference in paw volume (mL) from day 16 to day 0 is determined and a percent change from control is obtained. […] The right hind paw inflammation, on the other hand, is caused by nonspecific inflammation. Compounds were tested at a dose of 2 mg/kg.

heart allograft = experiment: heterotropic heart allograft standard pharmacological test procedure; type: in vivo, BN rat neonate donors, male Lewis rat recipients; settings: untreated rejected in about 9-10 days
Procedure: as §1
The ability of the compounds of this invention to induce immunosuppression and inhibit or treat transplantation rejection was evaluated in a heterotropic heart allograft standard pharmacological test procedure that emulates transplantation rejection that occurs in humans. The following briefly describes the procedure that was used. […]

[2] = tested on: cells from the thymus of normal BALB/c mice (lymphocyte proliferation); experiment: comitogen-induced thymocyte proliferation procedure (LAF); type: cell-based; settings: read-out: LAF IC50
Procedure: as §1
The comitogen-induced thymocyte proliferation procedure (LAF) was used as an in vitro measure of the immunosuppressive effects of representative compounds. Briefly, cells from the thymus of normal BALB/c mice are cultured for 72 hours with PHA and IL-1 and pulsed with tritiated thymidine during the last six hours. Cells are cultured with and without various concentrations of rapamycin, cyclosporin A, or test compound. Cells are harvested and incorporated radioactivity is determined. Inhibition of lymphoproliferation is assessed as percent change in counts per minute from non-drug treated controls. For each compound evaluated, rapamycin was also evaluated for the purpose of comparison. An IC50 was obtained for each test compound as well as for rapamycin. […] The results obtained are provided as an IC50.

pinch skin graft = pinch skin graft survival test procedure; type: in vivo, male BALB/c donors transplanted to male C3H(H-2K) recipients; settings: 4 mg/kg, intraperitoneally or orally; mean ± S.D.; untreated rejected within 6-7 days
Procedure: as §1
Representative compounds of this invention were also evaluated in an in vivo test procedure designed to determine the survival time of pinch skin graft from male BALB/c donors transplanted to male C3 H(H-2K) recipients. The method is adapted from Billingham R. E. and Medawar P. B., J. Exp. Biol. 28:385-402, (1951 ). Briefly, a pinch skin graft from the donor was grafted on the dorsum of the recipient as a allograft, and an isograft was used as control in the same region. The recipients were treated with either varying concentrations of test compounds intraperitoneally or orally. Rapamycin was used as a test control. Untreated recipients serve as rejection control. The graft was monitored daily and observations were recorded until the graft became dry and formed a blackened scab. This was considered as the rejection day. The mean graft survival time (number of days±S.D.) of the drug treatment group was compared with the control group. […] Results are expressed as the mean survival time in days. Untreated (control) pinch skin grafts are usually rejected within 6-7 days. Compounds were tested using a dose of 4 mg/kg.

[3] = tested on: experimental allergic encephalomyelitis; settings: model for multiple sclerosis; cited from earlier work
IgE-like antibodies = settings: in vivo; cited from earlier work
Candida albicans = settings: in vitro and in vivo; cited from earlier work
[4] = Mus musculus, Lymphocyte, PHA and IL-1, 72 hours culture, tritiated thymidine last six hours

SMILES | Percent change in adjuvant arthritis versus control ([1]; day 16) | IC50 [2, 4] | Skin graft survival (mean survival time) (pinch skin graft) | further results
CO[C@H]1C[C@@H]2CC[C@@H](C)[C@@](O)(O2)C(=O)C(=O)N2CCCC[C@H]2C(=O)O[C@H]([C@H](C)C[C@@H]2CC[C@@H](OC(=O)C(C)(C)Cc3cccnc3)[C@H](OC)C2)CC(=O)[C@H](C)/C=C(\C)[C@@H](O)[C@@H](OC)C(=O)[C@H](C)C[C@H](C)/C=C/C=C/C=C/1C [Example 2, Rapamycin 42-ester with 2,2-dimethyl-3-(3-pyridinyl) propionic acid] | -62% | 0.83 nM | 13.6 ± 0.6 days | Heart allograft (mean graft survival time) (heart allograft; i.p., 300 μg/day): 29 days; Heart allograft (mean graft survival time) (heart allograft; p.o.): 11.5 days
CO[C@H]1C[C@@H]2CC[C@@H](C)[C@@](O)(O2)C(=O)C(=O)N2CCCC[C@H]2C(=O)O[C@H]([C@H](C)C[C@@H]2CC[C@@H](OC(=O)C(C)(C)CCc3ccccn3)[C@H](OC)C2)CC(=O)[C@H](C)/C=C(\C)[C@@H](O)[C@@H](OC)C(=O)[C@H](C)C[C@H](C)/C=C/C=C/C=C/1C [Example 5, Rapamycin 42-ester with 2,2-dimethyl-4-(2-pyridinyl) butyric acid] | -75% | 0.58 nM |  | 
CO[C@H]1C[C@@H]2CC[C@@H](C)[C@@](O)(O2)C(=O)C(=O)N2CCCC[C@H]2C(=O)O[C@H]([C@H](C)C[C@@H]2CC[C@@H](OC(=O)C3(C)CCN(C)CC3)[C@H](OC)C2)CC(=O)[C@H](C)/C=C(\C)[C@@H](O)[C@@H](OC)C(=O)[C@H](C)C[C@H](C)/C=C/C=C/C=C/1C [Example 12, Rapamycin 42-ester with 1,4-dimethylpiperidine-4-carboxylic acid] | -75% | 0.58 nM | 12.83 ± 1.47 days | 
CO[C@H]1C[C@@H]2CC[C@@H](C)[C@@](O)(O2)C(=O)C(=O)N2CCCC[C@H]2C(=O)O[C@H]([C@H](C)C[C@@H]2CC[C@@H](OC(=O)C3(C)CCCCN3C(=O)c3ccccc3)[C@H](OC)C2)CC(=O)[C@H](C)/C=C(\C)[C@@H](O)[C@@H](OC)C(=O)[C@H](C)C[C@H](C)/C=C/C=C/C=C/1C (stereo partly shown) [Example 13, Rapamycin 42-ester with 1-benzoyl-2-methyl-piperidine-2-carboxylic acid] |  | 2.9 nM |  | 
CO[C@H]1C[C@@H]2CC[C@@H](C)[C@@](O)(O2)C(=O)C(=O)N2CCCC[C@H]2C(=O)O[C@H]([C@H](C)C[C@@H]2CC[C@@H](OC(=O)C(C)(C)Cc3cccnc3)[C@H](OC)C2)CC(=O)[C@H](C)/C=C(\C)[C@@H](O)[C@@H](OC)C(=O)[C@H](C)C[C@H](C)/C=C/C=C/C=C/1C [Example 3, Rapamycin 42-ester with 2,2-dimethyl-3-(3-pyridinyl) propionic acid hydrochloride salt] |  |  |  | Percent change in adjuvant arthritis versus control ([1]; day 16, hydrochloride salt): -73%; IC50 ([2]; PHA and IL-1, 72 hours culture, tritiated thymidine last six hours, hydrochloride salt): 1.03 nM
CO[C@H]1C[C@@H]2CC[C@@H](C)[C@@](O)(O2)C(=O)C(=O)N2CCCC[C@H]2C(=O)O[C@H]([C@H](C)C[C@@H]2CC[C@@H](OC(=O)C(C)(C)CCc3cccnc3)[C@H](OC)C2)CC(=O)[C@H](C)/C=C(\C)[C@@H](O)[C@@H](OC)C(=O)[C@H](C)C[C@H](C)/C=C/C=C/C=C/1C [Example 8, Rapamycin 42-ester with 2,2-dimethyl-4-(3-pyridinyl) butyric acid] | -50% | 1.2 nM |  | 
CO[C@H]1C[C@@H]2CC[C@@H](C)[C@@](O)(O2)C(=O)C(=O)N2CCCC[C@H]2C(=O)O[C@H]([C@H](C)C[C@@H]2CC[C@@H](OC(=O)C(C)(C)Cc3ccccn3)[C@H](OC)C2)CC(=O)[C@H](C)/C=C(\C)[C@@H](O)[C@@H](OC)C(=O)[C@H](C)C[C@H](C)/C=C/C=C/C=C/1C [Example 7, Rapamycin 42-ester with 2,2-dimethyl-3-(2-pyridinyl) propionic acid] | -78% | 0.6 nM |  | 
CO[C@H]1C[C@@H]2CC[C@@H](C)[C@@](O)(O2)C(=O)C(=O)N2CCCC[C@H]2C(=O)O[C@H]([C@H](C)C[C@@H]2CC[C@@H](OC(=O)C(C)(C)CCCc3cccnc3)[C@H](OC)C2)CC(=O)[C@H](C)/C=C(\C)[C@@H](O)[C@@H](OC)C(=O)[C@H](C)C[C@H](C)/C=C/C=C/C=C/1C [Example 6, Rapamycin 42-ester with 2,2-dimethyl-5-(3-pyridinyl) pentanoic acid] | -45% | 3 nM | 12.50 ± 0.55 days | 
CO[C@H]1C[C@@H]2CC[C@@H](C)[C@@](O)(O2)C(=O)C(=O)N2CCCC[C@H]2C(=O)O[C@H]([C@H](C)C[C@@H]2CC[C@@H](O)[C@H](OC)C2)CC(=O)[C@H](C)/C=C(\C)[C@@H](O)[C@@H](OC)C(=O)[C@H](C)C[C@H](C)/C=C/C=C/C=C/1C [rapamycin] |  |  |  | effect in experimental allergic encephalomyelitis model (in words) [3]: effective in the experimental allergic encephalomyelitis model; inhibition of formation of IgE-like antibodies (in words) (IgE-like antibodies): effectively inhibited the formation of IgE-like antibodies; less immune induced inflammation than control rats ([1]; rapamycin treated rats, day 16): 70-90%; antifungal activity (in words) (Candida albicans): antifungal activity, particularly against Candida albicans, both in vitro and in vivo; IC50 ([2]; Mus musculus, Lymphocyte): 0.5 to 1.9 nM
CO[C@H]1C[C@@H]2CC[C@@H](C)[C@@](O)(O2)C(=O)C(=O)N2CCCC[C@H]2C(=O)O[C@H]([C@H](C)C[C@@H]2CC[C@@H](OC(=O)C(C)(C)Cc3ccncc3)[C@H](OC)C2)CC(=O)[C@H](C)/C=C(\C)[C@@H](O)[C@@H](OC)C(=O)[C@H](C)C[C@H](C)/C=C/C=C/C=C/1C [Example 9, Rapamycin 42-ester with 2,2-dimethyl-3-(4-pyridinyl) propionic acid] | -73% | 0.84 nM | 11.17 ± 1.47 days | 
